Data taken from patent publication US10233186B2, “Inhibitors of activin receptor-like kinase” (BLUEPRINT MEDICINES CORPORATION, priority 2016, dated 2019).

Experiments:
[1] = target: T1, ALK2 R206H (GST-tagged mutant ALK2) (Homo sapiens, UniProt Q04771, R206H); assay: ALK binding assay (LANTHASCREEN TR-FRET competitive binding, displacement of Kinase Tracer 178); details: ALK2 R206H, LANTHASCREEN TR-FRET competitive binding; read-out: Binding Assay (IC50)
T1 construct: purchased Carna Bioscience or ThermoFisher 09-148 or PV6232
T1 sequence (Q04771 21-509 R206H): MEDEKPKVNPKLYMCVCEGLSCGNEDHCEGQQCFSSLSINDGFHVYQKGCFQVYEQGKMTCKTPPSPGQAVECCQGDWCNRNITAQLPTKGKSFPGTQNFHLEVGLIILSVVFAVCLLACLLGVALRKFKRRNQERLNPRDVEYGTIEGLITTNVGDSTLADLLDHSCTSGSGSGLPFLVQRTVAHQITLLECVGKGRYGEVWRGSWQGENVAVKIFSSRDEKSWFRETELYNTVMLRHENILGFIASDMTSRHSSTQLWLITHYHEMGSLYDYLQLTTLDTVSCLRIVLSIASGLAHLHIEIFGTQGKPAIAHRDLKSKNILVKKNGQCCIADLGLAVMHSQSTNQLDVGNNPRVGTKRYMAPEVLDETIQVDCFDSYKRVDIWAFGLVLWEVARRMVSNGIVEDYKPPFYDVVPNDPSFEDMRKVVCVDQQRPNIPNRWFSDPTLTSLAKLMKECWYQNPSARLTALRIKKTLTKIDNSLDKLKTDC

human ALK2 R206H = target: T2, human ALK2 R206H (Homo sapiens, UniProt Q04771, R206H); assay: Cell-based ALK2-R206H cell activity assay (Smad1-Ser463/Ser465 phosphorylation by AlphaLISA in HEK293-ALK2-R206H cells); details: read-out: Cell Line (Cell Assay IC50)
T2 construct: expressed in transfected cells; host or cells: HEK293 (ATCC CRL1573), lentivirus transduction, blasticidin selection
T2 sequence (Q04771 21-509 R206H): T1 sequence (Q04771 21-509 R206H)
Method in brief: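 Stable HEK293 cells expressing C-terminally FLAG-tagged human ALK2 R206H (lentiviral, blasticidin-selected) were treated with compounds in 10-point, 3-fold dilutions from 10 μM or 1 μM top, in duplicate. Smad1 Ser463/Ser465 phosphorylation was read by AlphaLISA.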

Compound	IC50 [1]	IC50 (human ALK2 R206H)
COC1(c2ccc(-c3cc4c(N5CCN(C(=O)NC(C)C)CC5)ccnn4c3)cc2)CCN([C@H](C)COC(F)F)CC1 [Compound 893]	< 10 nM	< 100 nM
COC1(c2ccc(-c3cc4c(N5CCN(C(=O)NC(C)C)CC5)ccnn4c3)nc2)CCN([C@@H](C)COC(F)F)CC1 [Compound 894]	< 10 nM	< 100 nM
CCOC1(c2ccc(-c3cc4c(N5CCN(C(=O)OC6CN(C(C)=O)C6)CC5)ccnn4c3)nc2)CCN(C(C)C)CC1 [Compound 895]	< 10 nM	100 to 500 nM
COC1(c2ccc(-c3cc4c(N5CCN(C(=O)OC6COC6)CC5)ccnn4c3)cc2)CCN([C@@H](C)COC(F)F)CC1 [Compound 896]	< 10 nM	< 100 nM
COC1(c2ccc(-c3cc4c(N5CCN(C(=O)OC6COC6)CC5)ccnn4c3)cc2)CCN([C@H](C)COC(F)F)CC1 [Compound 897]	< 10 nM	< 100 nM
COC1(c2ccc(-c3cc4c(N5CCN(C(=O)OC6COC6)CC5)ccnn4c3)nc2)CCN([C@H](C)COC(F)F)CC1 [Compound 898]	< 10 nM	< 100 nM
COC1(c2ccc(-c3cc4c(N5CCN(C(=O)OC6COC6)CC5)ccnn4c3)nc2)CCN([C@@H](C)COC(F)F)CC1 [Compound 899]	< 10 nM	< 100 nM
